Test results from PubChem BioAssay AID1919003 (Molecular Pharmacology Branch, DTP, NCI, 2023).

Test system: 786-0 complex spheroids with HUVEC/MSC, growth % test/control
Assay: Anticancer human tumor 786-0 cell line growth inhibition [AhR];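 further: compound exposure lasted seven days before the read-out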
Conditions: for viability, T/C: stronger effect = lower value
Procedure, shortened: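 Spheroids combined tumor cells with HUVEC endothelial cells and human MSCs as stroma. AhR antagonists were paired with standard or investigational drugs, each dosed in half-log steps down from near clinical Cmax, or from 10 microM where Cmax was unknown.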

[1] = curve of first compound, second compound 0.1 µM
[2] = curve of first compound, second compound 0.316 µM
[3] = curve of first compound, second compound 1 µM
[4] = curve of first compound, second compound 3.16 µM
[5] = curve of first compound, second compound 10 µM
[6] = second compound 0.1 µM, first compound 0.0316 µM
[7] = second compound 0.1 µM, first compound 0.1 µM
[8] = second compound 0.1 µM, first compound 0.316 µM
[9] = second compound 0.1 µM, first compound 1 µM
[10] = second compound 0.1 µM, first compound 3.16 µM
[11] = second compound 0.1 µM, first compound 10 µM
[12] = second compound 0.316 µM, first compound 0.0316 µM
[13] = second compound 0.316 µM, first compound 0.1 µM
[14] = second compound 0.316 µM, first compound 0.316 µM
[15] = second compound 0.316 µM, first compound 1 µM
[16] = second compound 0.316 µM, first compound 3.16 µM
[17] = second compound 0.316 µM, first compound 10 µM
[18] = second compound 1 µM, first compound 0.0316 µM
[19] = second compound 1 µM, first compound 0.1 µM
[20] = second compound 1 µM, first compound 0.316 µM
[21] = second compound 1 µM, first compound 1 µM
[22] = second compound 1 µM, first compound 3.16 µM
[23] = second compound 1 µM, first compound 10 µM
[24] = second compound 3.16 µM, first compound 0.0316 µM
[25] = second compound 3.16 µM, first compound 0.1 µM
[26] = second compound 3.16 µM, first compound 0.316 µM
[27] = second compound 3.16 µM, first compound 1 µM
[28] = second compound 3.16 µM, first compound 3.16 µM
[29] = second compound 3.16 µM, first compound 10 µM
[30] = second compound 10 µM, first compound 0.0316 µM
[31] = second compound 10 µM, first compound 0.1 µM
[32] = second compound 10 µM, first compound 0.316 µM
[33] = second compound 10 µM, first compound 1 µM
[34] = second compound 10 µM, first compound 3.16 µM
[35] = second compound 10 µM, first compound 10 µM

`CCc1c2c(nc3ccc(O)cc13)-c1cc3c(c(=O)n1C2)COC(=O)[C@]3(O)CC` + CC(CO)NC(=O)c1cc(-c2ccc(Cl)cc2)nn(-c2cnn(C)c2)c1=O showed an IC50 [1] of 5.22 nM, an IC50 [2] of 4.94 nM and an IC50 [3] of 4.22 nM. The IC50 [4] was 3.06 nM, the IC50 [5] was 2.22 nM and the viability, T/C (second compound 0.1 µM, first compound 0.000949 µM) was 98.5%. It also gave a viability, T/C (second compound 0.1 µM, first compound 0.003 µM) of 82.1%, a viability, T/C (second compound 0.1 µM, first compound 0.00949 µM) of 15.3% and a viability, T/C (second compound 0.1 µM, first compound 0.03 µM) of 5.93%. It also gave a viability, T/C (second compound 0.1 µM, first compound 0.0949 µM) of 2.72%, a viability, T/C (second compound 0.1 µM, first compound 0.3 µM) of 2.09% and a viability, T/C (second compound 0.316 µM, first compound 0.000949 µM) of 88%. The viability, T/C (second compound 0.316 µM, first compound 0.003 µM) was 75.5%, the viability, T/C (second compound 0.316 µM, first compound 0.00949 µM) was 16.6% and the viability, T/C (second compound 0.316 µM, first compound 0.03 µM) was 5.34%. It also gave a viability, T/C (second compound 0.316 µM, first compound 0.0949 µM) of 3.26%, a viability, T/C (second compound 0.316 µM, first compound 0.3 µM) of 2.5% and a viability, T/C (second compound 1 µM, first compound 0.000949 µM) of 96.8%. For the same compound, the viability, T/C (second compound 1 µM, first compound 0.003 µM) was 65%, the viability, T/C (second compound 1 µM, first compound 0.00949 µM) was 14.1% and the viability, T/C (second compound 1 µM, first compound 0.03 µM) was 6.51%. The viability, T/C (second compound 1 µM, first compound 0.0949 µM) was 3.19%, the viability, T/C (second compound 1 µM, first compound 0.3 µM) was 2.39% and the viability, T/C (second compound 3.16 µM, first compound 0.000949 µM) was 81.5%. For the same compound, the viability, T/C (second compound 3.16 µM, first compound 0.003 µM) was 50.7%, the viability, T/C (second compound 3.16 µM, first compound 0.00949 µM) was 14.6% and the viability, T/C (second compound 3.16 µM, first compound 0.03 µM) was 5.63%. It also gave a viability, T/C (second compound 3.16 µM, first compound 0.0949 µM) of 2.91%, a viability, T/C (second compound 3.16 µM, first compound 0.3 µM) of 2.49% and a viability, T/C (second compound 10 µM, first compound 0.000949 µM) of 81.4%. For the same compound, the viability, T/C (second compound 10 µM, first compound 0.003 µM) was 39%, the viability, T/C (second compound 10 µM, first compound 0.00949 µM) was 14% and the viability, T/C (second compound 10 µM, first compound 0.03 µM) was 6.45%. The viability, T/C (second compound 10 µM, first compound 0.0949 µM) was 3.27% and the viability, T/C (second compound 10 µM, first compound 0.3 µM) was 2.66%.

`O=C(C=Cc1cccc(S(=O)(=O)Nc2ccccc2)c1)NO` + CC(CO)NC(=O)c1cc(-c2ccc(Cl)cc2)nn(-c2cnn(C)c2)c1=O showed an IC50 [1] of 6020 nM, an IC50 [2] of 5210 nM and an IC50 [3] of 5510 nM. The IC50 [4] was 4850 nM, the IC50 [5] was 4710 nM and the viability, T/C [6] was 102%. The viability, T/C [7] was 106%, the viability, T/C [8] was 97.2% and the viability, T/C [9] was 107%. It also gave a viability, T/C [10] of 93.8%, a viability, T/C [11] of 15.2% and a viability, T/C [12] of 104%. For the same compound, the viability, T/C [13] was 101%, the viability, T/C [14] was 111% and the viability, T/C [15] was 110%. The viability, T/C [16] was 79%, the viability, T/C [17] was 12% and the viability, T/C [18] was 100%. It also gave a viability, T/C [19] of 104%, a viability, T/C [20] of 104% and a viability, T/C [21] of 105%. It also gave a viability, T/C [22] of 84.7%, a viability, T/C [23] of 12.5% and a viability, T/C [24] of 103%. It also gave a viability, T/C [25] of 102%, a viability, T/C [26] of 103% and a viability, T/C [27] of 101%. It also gave a viability, T/C [28] of 73.6%, a viability, T/C [29] of 10% and a viability, T/C [30] of 109%. It also gave a viability, T/C [31] of 108%, a viability, T/C [32] of 106% and a viability, T/C [33] of 94.8%. For the same compound, the viability, T/C [34] was 72.6% and the viability, T/C [35] was 8.46%.

`CC1COCCN1c1cc(-c2ccnn2C)c2ccnc(-c3ccn[nH]3)c2n1` (centres undefined) + Cc1ccccc1N=Nc1ccc(NC(=O)c2ccnn2C)c(C)c1 gave an IC50 [1] of 196 nM, an IC50 [2] of 197 nM and an IC50 [3] of 211 nM. The IC50 [4] was 177 nM, the IC50 [5] was 155 nM and the viability, T/C (second compound 0.1 µM, first compound 0.00316 µM) was 97.6%. It also gave a viability, T/C (second compound 0.1 µM, first compound 0.01 µM) of 108%, a viability, T/C [6] of 105% and a viability, T/C [7] of 86.9%. The viability, T/C [8] was 23.9%, the viability, T/C [9] was 8.22% and the viability, T/C (second compound 0.316 µM, first compound 0.00316 µM) was 107%. For the same compound, the viability, T/C (second compound 0.316 µM, first compound 0.01 µM) was 109%, the viability, T/C [12] was 108% and the viability, T/C [13] was 86.2%. For the same compound, the viability, T/C [14] was 24.9%, the viability, T/C [15] was 8.15% and the viability, T/C (second compound 1 µM, first compound 0.00316 µM) was 119%. It also gave a viability, T/C (second compound 1 µM, first compound 0.01 µM) of 104%, a viability, T/C [18] of 102% and a viability, T/C [19] of 92.5%. For the same compound, the viability, T/C [20] was 26.9%, the viability, T/C [21] was 7.53% and the viability, T/C (second compound 3.16 µM, first compound 0.00316 µM) was 99.5%. For the same compound, the viability, T/C (second compound 3.16 µM, first compound 0.01 µM) was 112%, the viability, T/C [24] was 89.3% and the viability, T/C [25] was 77.7%. The viability, T/C [26] was 22.7%, the viability, T/C [27] was 10.2% and the viability, T/C (second compound 10 µM, first compound 0.00316 µM) was 96.9%. It also gave a viability, T/C (second compound 10 µM, first compound 0.01 µM) of 96.8%, a viability, T/C [30] of 96.1% and a viability, T/C [31] of 67.5%. It also gave a viability, T/C [32] of 21.2% and a viability, T/C [33] of 9.41%.

`CC1COCCN1c1cc(C2(S(C)(=N)=O)CC2)nc(-c2ccnc3[nH]ccc23)n1` (centres undefined) + Cc1ccccc1N=Nc1ccc(NC(=O)c2ccnn2C)c(C)c1 showed an IC50 [1] of 6080 nM, an IC50 [2] of 5930 nM and an IC50 [3] of 6520 nM. It also gave an IC50 [4] of 6440 nM, an IC50 [5] of 5280 nM and a viability, T/C [6] of 96.9%. The viability, T/C [7] was 103%, the viability, T/C [8] was 97.7% and the viability, T/C [9] was 101%. For the same compound, the viability, T/C [10] was 79.6%, the viability, T/C [11] was 27.6% and the viability, T/C [12] was 92%. The viability, T/C [13] was 97.6%, the viability, T/C [14] was 102% and the viability, T/C [15] was 106%. It also gave a viability, T/C [16] of 72.7%, a viability, T/C [17] of 31.1% and a viability, T/C [18] of 98%. The viability, T/C [19] was 96.8%, the viability, T/C [20] was 103% and the viability, T/C [21] was 93.2%. For the same compound, the viability, T/C [22] was 79.5%, the viability, T/C [23] was 32.8% and the viability, T/C [24] was 99.9%. It also gave a viability, T/C [25] of 105%, a viability, T/C [26] of 91.5% and a viability, T/C [27] of 89.2%. The viability, T/C [28] was 70.3%, the viability, T/C [29] was 37.1% and the viability, T/C [30] was 97.7%. It also gave a viability, T/C [31] of 97.2%, a viability, T/C [32] of 102% and a viability, T/C [33] of 88.5%. For the same compound, the viability, T/C [34] was 62.5% and the viability, T/C [35] was 34.8%.

For `Nc1ccn(C2OC(CO)C(O)C2(F)F)c(=O)n1` (centres undefined) + CC(CO)NC(=O)c1cc(-c2ccc(Cl)cc2)nn(-c2cnn(C)c2)c1=O, the IC50 [1] was < 31.6 nM, the IC50 [2] was < 31.6 nM and the IC50 [3] was < 31.6 nM. The IC50 [4] was < 31.6 nM, the IC50 [5] was < 31.6 nM and the viability, T/C [6] was 4.79%. For the same compound, the viability, T/C [7] was 4.46%, the viability, T/C [8] was 2.56% and the viability, T/C [9] was 4.39%. The viability, T/C [10] was 3.18%, the viability, T/C [11] was 4.27% and the viability, T/C [12] was 5.24%. For the same compound, the viability, T/C [13] was 4.16%, the viability, T/C [14] was 4.42% and the viability, T/C [15] was 3.7%. For the same compound, the viability, T/C [16] was 4.85%, the viability, T/C [17] was 6.51% and the viability, T/C [18] was 5.01%. It also gave a viability, T/C [19] of 3.82%, a viability, T/C [20] of 4.34% and a viability, T/C [21] of 4.23%. The viability, T/C [22] was 4.33%, the viability, T/C [23] was 4.11% and the viability, T/C [24] was 5.21%. The viability, T/C [25] was 4.49%, the viability, T/C [26] was 4.44% and the viability, T/C [27] was 4.62%. It also gave a viability, T/C [28] of 4.8%, a viability, T/C [29] of 5.89% and a viability, T/C [30] of 4.43%. It also gave a viability, T/C [31] of 3.72%, a viability, T/C [32] of 4.66% and a viability, T/C [33] of 4.02%. It also gave a viability, T/C [34] of 5.31% and a viability, T/C [35] of 6.31%.

`Cc1ccccc1N=Nc1ccc(NC(=O)c2ccnn2C)c(C)c1` was tested, and the viability, T/C (compound 0.1 µM) was 99.5% [middle of 20 runs], the viability, T/C (compound 0.316 µM) was 99.1% [middle of 20 runs] and the viability, T/C (compound 1 µM) was 97.1% [middle of 20 runs]. The IC50 (compound alone, run of 08/22/2022) was > 10000 nM.
